Key:
telomerase = biological target: T1, telomerase (Homo sapiens, UniProt O14746); test: TRAP / RTQ-TRAP telomerase activity assay in A549 cell-free lysates; type: biochemical; settings: telomerase inhibition, mean ± SEM;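 also: telomerase activity measured in cell-free extracts of human A549 epithelial lung carcinoma cells, tested across a range of inhibitor concentrations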
T1 construct: A549 cells (human epithelial cell lung carcinoma, ATCC, Manassas, VA) were lysed in; host or cells: A549 cell lysate (CHAPS extract, 5 µg total protein)

[1] = biological target: T2, telomerase inside living cancer cells HCC44 (Homo sapiens, UniProt O14746); test: Living-cell TRAP assay, HCC44; type: cell-based; settings: percent of control cells, 10 µM, 48 h
T2 construct: host or cells: HCC44

[2] = biological target: T3, telomerase inside living cancer cells A549 (Homo sapiens, UniProt O14746); test: Living-cell TRAP assay, A549; type: cell-based; settings: percent of control cells, 10 µM, 48 h
T3 construct: host or cells: A549

[3] = biological target: T4, telomerase inside living cancer cells NCI-H23 (Homo sapiens, UniProt O14746); test: Living-cell TRAP assay, NCI-H23; type: cell-based; settings: percent of control cells, 10 µM, 48 h
T4 construct: host or cells: NCI-H23
T4 sequence (O14746 whole entry): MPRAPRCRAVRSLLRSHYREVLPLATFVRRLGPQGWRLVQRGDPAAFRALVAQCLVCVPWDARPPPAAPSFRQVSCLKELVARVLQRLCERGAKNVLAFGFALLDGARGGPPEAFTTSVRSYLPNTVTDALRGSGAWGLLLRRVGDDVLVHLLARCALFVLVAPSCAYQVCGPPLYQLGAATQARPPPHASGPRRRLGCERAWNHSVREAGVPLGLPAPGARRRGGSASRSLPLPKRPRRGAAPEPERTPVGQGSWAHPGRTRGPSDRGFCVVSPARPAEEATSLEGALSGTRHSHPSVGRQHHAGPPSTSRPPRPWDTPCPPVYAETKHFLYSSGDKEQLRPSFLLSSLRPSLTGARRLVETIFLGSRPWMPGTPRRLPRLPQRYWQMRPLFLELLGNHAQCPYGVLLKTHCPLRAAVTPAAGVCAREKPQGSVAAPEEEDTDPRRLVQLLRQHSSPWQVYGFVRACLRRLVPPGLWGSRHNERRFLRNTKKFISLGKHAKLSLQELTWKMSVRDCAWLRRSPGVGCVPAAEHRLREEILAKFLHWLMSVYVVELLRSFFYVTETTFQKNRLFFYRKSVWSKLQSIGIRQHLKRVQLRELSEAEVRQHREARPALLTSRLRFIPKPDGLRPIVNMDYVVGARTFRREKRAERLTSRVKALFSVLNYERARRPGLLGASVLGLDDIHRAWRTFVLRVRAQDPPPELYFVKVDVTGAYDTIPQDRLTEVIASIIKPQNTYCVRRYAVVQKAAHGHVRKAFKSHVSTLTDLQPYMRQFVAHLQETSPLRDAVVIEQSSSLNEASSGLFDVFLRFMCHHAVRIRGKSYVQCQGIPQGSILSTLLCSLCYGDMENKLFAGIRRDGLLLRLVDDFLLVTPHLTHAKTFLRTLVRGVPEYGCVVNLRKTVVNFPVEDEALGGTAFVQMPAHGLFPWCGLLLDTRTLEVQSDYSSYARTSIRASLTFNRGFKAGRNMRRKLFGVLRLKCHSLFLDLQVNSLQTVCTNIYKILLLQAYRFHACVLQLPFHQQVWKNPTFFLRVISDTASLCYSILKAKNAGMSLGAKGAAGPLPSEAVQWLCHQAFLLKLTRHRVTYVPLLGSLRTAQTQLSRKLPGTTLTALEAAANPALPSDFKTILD
T4 sequence (O60832 whole entry partner): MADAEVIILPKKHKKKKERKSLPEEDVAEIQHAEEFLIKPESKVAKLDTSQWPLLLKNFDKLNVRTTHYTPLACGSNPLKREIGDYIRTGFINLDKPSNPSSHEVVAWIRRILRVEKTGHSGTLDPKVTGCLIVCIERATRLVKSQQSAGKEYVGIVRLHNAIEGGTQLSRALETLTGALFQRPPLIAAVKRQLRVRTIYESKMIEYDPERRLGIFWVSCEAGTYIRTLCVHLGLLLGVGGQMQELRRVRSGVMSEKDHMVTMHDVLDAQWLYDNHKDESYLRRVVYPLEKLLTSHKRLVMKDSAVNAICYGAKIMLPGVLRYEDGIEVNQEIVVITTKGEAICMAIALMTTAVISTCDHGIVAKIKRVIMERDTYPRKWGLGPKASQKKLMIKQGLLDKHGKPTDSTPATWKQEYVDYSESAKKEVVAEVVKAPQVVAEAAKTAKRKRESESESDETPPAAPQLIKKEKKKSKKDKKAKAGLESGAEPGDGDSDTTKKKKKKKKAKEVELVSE
T4 sequence (Q9NX24 whole entry partner): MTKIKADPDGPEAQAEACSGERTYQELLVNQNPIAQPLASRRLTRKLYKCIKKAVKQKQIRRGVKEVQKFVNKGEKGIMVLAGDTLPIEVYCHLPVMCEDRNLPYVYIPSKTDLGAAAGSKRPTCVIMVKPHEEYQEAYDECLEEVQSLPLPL
T4 sequence (Q9NPE3 whole entry partner): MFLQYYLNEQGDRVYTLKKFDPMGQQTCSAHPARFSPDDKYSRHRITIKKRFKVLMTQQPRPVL
T4 sequence (Q9NY12 whole entry partner): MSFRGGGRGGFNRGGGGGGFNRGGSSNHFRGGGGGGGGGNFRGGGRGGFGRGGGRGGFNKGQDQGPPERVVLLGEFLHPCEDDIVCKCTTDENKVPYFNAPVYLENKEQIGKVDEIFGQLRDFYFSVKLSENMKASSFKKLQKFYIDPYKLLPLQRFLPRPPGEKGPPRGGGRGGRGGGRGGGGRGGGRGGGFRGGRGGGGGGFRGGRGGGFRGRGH
T4 sequence (Q9BUR4 whole entry partner): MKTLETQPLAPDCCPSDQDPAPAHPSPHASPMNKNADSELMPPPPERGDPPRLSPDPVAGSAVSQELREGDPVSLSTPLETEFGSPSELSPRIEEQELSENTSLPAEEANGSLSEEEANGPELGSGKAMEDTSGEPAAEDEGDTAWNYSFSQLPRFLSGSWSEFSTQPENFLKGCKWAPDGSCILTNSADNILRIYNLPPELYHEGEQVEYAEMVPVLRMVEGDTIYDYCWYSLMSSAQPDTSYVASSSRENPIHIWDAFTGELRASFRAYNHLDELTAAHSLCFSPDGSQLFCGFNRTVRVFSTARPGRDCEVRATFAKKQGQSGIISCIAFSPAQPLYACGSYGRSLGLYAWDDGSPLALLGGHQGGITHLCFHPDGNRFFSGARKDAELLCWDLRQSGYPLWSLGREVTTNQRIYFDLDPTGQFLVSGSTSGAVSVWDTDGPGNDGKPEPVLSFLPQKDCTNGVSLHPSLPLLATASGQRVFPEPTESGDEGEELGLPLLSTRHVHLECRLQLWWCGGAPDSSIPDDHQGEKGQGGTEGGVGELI

T1 sequence (O14746 whole entry): as the sequence (O14746 whole entry) above
T1 sequence (O60832 whole entry partner): as the sequence (O60832 whole entry partner) above
T1 sequence (Q9NX24 whole entry partner): as the sequence (Q9NX24 whole entry partner) above
T1 sequence (Q9NPE3 whole entry partner): as the sequence (Q9NPE3 whole entry partner) above
T1 sequence (Q9NY12 whole entry partner): as the sequence (Q9NY12 whole entry partner) above
T1 sequence (Q9BUR4 whole entry partner): as the sequence (Q9BUR4 whole entry partner) above
T2 sequence (O14746 whole entry): as the sequence (O14746 whole entry) above
T2 sequence (O60832 whole entry partner): as the sequence (O60832 whole entry partner) above
T2 sequence (Q9NX24 whole entry partner): as the sequence (Q9NX24 whole entry partner) above
T2 sequence (Q9NPE3 whole entry partner): as the sequence (Q9NPE3 whole entry partner) above
T2 sequence (Q9NY12 whole entry partner): as the sequence (Q9NY12 whole entry partner) above
T2 sequence (Q9BUR4 whole entry partner): as the sequence (Q9BUR4 whole entry partner) above
T3 sequence (O14746 whole entry): as the sequence (O14746 whole entry) above
T3 sequence (O60832 whole entry partner): as the sequence (O60832 whole entry partner) above
T3 sequence (Q9NX24 whole entry partner): as the sequence (Q9NX24 whole entry partner) above
T3 sequence (Q9NPE3 whole entry partner): as the sequence (Q9NPE3 whole entry partner) above
T3 sequence (Q9NY12 whole entry partner): as the sequence (Q9NY12 whole entry partner) above
T3 sequence (Q9BUR4 whole entry partner): as the sequence (Q9BUR4 whole entry partner) above

melting point [°C] | IC50 (telomerase) [µM] | IC90 (telomerase) [µM] | % Telomerase Activity in Cancer Cells [1] [%] | % Telomerase Activity in Cancer Cells [2] [%] | % Telomerase Activity in Cancer Cells [3] [%] | SMILES
354 to 356 | 20.9 ± 0.7 | 109 ± 3.2 | – | – | – | N#C/C(=C\c1ccc(C(F)(F)F)cc1)C(=O)Nc1sc2c(c1C#N)CCC2 [Compound 25a, (2E/2Z)-2-Cyano-N-{3-cyano-4H,5H,6H-cyclopenta[b]thiophen-2-yl}-3-[4-(trifluoromethyl)phenyl]prop-2-enamide]
225 to 227 | 25.8 ± 1 | 140 ± 4.7 | – | – | – | N#C/C(=C\c1ccc(C(F)(F)F)cc1)C(=O)Nc1sc2c(c1C#N)CCCC2 [Compound 25b, (2E)-2-Cyano-N-(3-cyano-4,5,6,7-tetrahydro-1-benzothiophen-2-yl)-3-[4-(trifluoromethyl)phenyl]prop-2-enamide]
– | 13.5 ± 0.6 | 154 | – | – | – | COc1ccc(/C=C(\C#N)C(=O)Nc2sc3c(c2C#N)CCC3)cc1OC [Compound 26a, (2E)-2-Cyano-N-{3-cyano-4H,5H,6H-cyclopenta[b]thiophen-2-yl}-3-(3,4-dimethoxyphenyl)prop-2-enamide]
– | 53.6 ± 1.8 | 751 | – | – | – | COc1ccc(/C=C(\C#N)C(=O)Nc2sc3c(c2C#N)CCCC3)cc1OC [Compound 26b, (2E)-2-Cyano-N-(3-cyano-4,5,6,7-tetrahydro-1-benzothiophen-2-yl)-3-(3,4-dimethoxyphenyl)prop-2-enamide]
329 to 331 | 6.5 ± 0.3 | 164 | – | – | – | N#C/C(=C\c1ccc(Cl)c(Cl)c1)C(=O)Nc1sc2c(c1C#N)CCC2 [Compound 27a, (2E/2Z)-2-Cyano-N-{3-cyano-4H,5H,6H-cyclopenta[b]thiophen-2-yl}-3-(3,4-dichlorophenyl)prop-2-enamide]
376 to 378 | 12.5 ± 0.6 | 138 | – | – | – | N#C/C(=C\c1ccc(Cl)c(Cl)c1)C(=O)Nc1sc2c(c1C#N)CCCC2 [Compound 27b, (2E/2Z)-2-Cyano-N-(3-cyano-4,5,6,7-tetrahydro-1-benzothiophen-2-yl)-3-(3,4-dichlorophenyl)prop-2-enamide]
302 to 304 | 6.7 ± 0.1 | 67.8 | – | – | – | N#C/C(=C\c1cccc(Cl)c1Cl)C(=O)Nc1sc2c(c1C#N)CCC2 [Compound 28a, (2E/2Z)-2-Cyano-N-{3-cyano-4H,5H,6H-cyclopenta[b]thiophen-2-yl}-3-(2,3-dichlorophenyl)prop-2-enamide]
232 to 234 | 8.3 ± 0.3 | 57.4 | – | – | – | N#C/C(=C\c1cccc(Cl)c1Cl)C(=O)Nc1sc2c(c1C#N)CCCC2 [Compound 28b, (2E)-2-Cyano-N-(3-cyano-4,5,6,7-tetrahydro-1-benzothiophen-2-yl)-3-(2,3-dichlorophenyl)prop-2-enamide]
– | 1.7 ± 0.04 | 6.3 ± 0.3 | 66.1 ± 2.4 | 22.1 ± 4.8 | 28.2 ± 3.9 | N#C/C(=C\c1ccc(N2CCCCC2)cc1)C(=O)Nc1sc2c(c1C#N)CCC2 [Compound 29a, (2E)-2-Cyano-N-{3-cyano-4H,5H,6H-cyclopenta[b]thiophen-2-yl}-3-[4-(piperidin-1-yl)phenyl]prop-2-enamide]
262 to 264 | 4.8 ± 0.2 | 32.8 ± 1.5 | – | – | – | N#C/C(=C\c1ccc(N2CCCCC2)cc1)C(=O)Nc1sc2c(c1C#N)CCCC2 [Compound 29b, (2E)-2-Cyano-N-(3-cyano-4,5,6,7-tetrahydro-1-benzothiophen-2-yl)-3-[4-(piperidin-1-yl)phenyl]prop-2-enamide]
– | 5.2 ± 0.2 | 112 ± 3.6 | – | – | – | N#C/C(=C\c1ccc(N2CCOCC2)cc1)C(=O)Nc1sc2c(c1C#N)CCC2 [Compound 30a, (2E)-2-Cyano-N-{3-cyano-4H,5H,6H-cyclopenta[b]thiophen-2-yl}-3-[4-(morpholin-4-yl)phenyl]prop-2-enamide]
246 to 248 | 5.9 ± 0.2 | 119 ± 4.6 | – | – | – | N#C/C(=C\c1ccc(N2CCOCC2)cc1)C(=O)Nc1sc2c(c1C#N)CCCC2 [Compound 30b, (2E)-2-Cyano-N-(3-cyano-4,5,6,7-tetrahydro-1-benzothiophen-2-yl)-3-[4-(morpholin-4-yl)phenyl]prop-2-enamide]
– | 98.5 ± 3.8 | 200 | – | – | – | CN1CCN(c2ccc(/C=C(\C#N)C(=O)Nc3sc4c(c3C#N)CCC4)cc2)CC1 [Compound 31a, (2E)-2-Cyano-N-{3-cyano-4H,5H,6H-cyclopenta[b]thiophen-2-yl}-3-[4-(4-methylpiperazin-1-yl)phenyl]prop-2-enamide]
257 to 259 | 89.9 ± 3.6 | 165 | – | – | – | CN1CCN(c2ccc(/C=C(\C#N)C(=O)Nc3sc4c(c3C#N)CCCC4)cc2)CC1 [Compound 31b, (2E)-2-Cyano-N-(3-cyano-4,5,6,7-tetrahydro-1-benzothiophen-2-yl)-3-[4-(4-methylpiperazin-1-yl)phenyl]prop-2-enamide]
233 to 235 | 6.4 ± 0.2 | 177 | – | – | – | COc1cc(/C=C(\C#N)C(=O)Nc2sc3c(c2C#N)CCC3)ccc1OCc1ccccc1 [Compound 32a, (2E)-3-[4-(Benzyloxy)-3-methoxyphenyl]-2-cyano-N-{3-cyano-4H,5H,6H-cyclopenta[b]thiophen-2-yl}prop-2-enamide]
220 to 222 | 110 ± 3.7 | 181 | – | – | – | COc1cc(/C=C(\C#N)C(=O)Nc2sc3c(c2C#N)CCCC3)ccc1OCc1ccccc1 [Compound 32b, (2E)-3-[4-(Benzyloxy)-3-methoxyphenyl]-2-cyano-N-(3-cyano-4,5,6,7-tetrahydro-1-benzothiophen-2-yl)prop-2-enamide]
– | 205 ± 4 | 643 | – | – | – | Cc1nn(-c2ccccc2)cc1/C=C(\C#N)C(=O)Nc1sc2c(c1C#N)CCC2 [Compound 33a, (2E)-2-Cyano-N-{3-cyano-4H,5H,6H-cyclopenta[b]thiophen-2-yl}-3-(3-methyl-1-phenyl-1H-pyrazol-4-yl)prop-2-enamide]
256 to 258 | 178 ± 3.3 | 574 | – | – | – | Cc1nn(-c2ccccc2)cc1/C=C(\C#N)C(=O)Nc1sc2c(c1C#N)CCCC2 [Compound 33b, (2E)-2-Cyano-N-(3-cyano-4,5,6,7-tetrahydro-1-benzothiophen-2-yl)-3-(3-methyl-1-phenyl-1H-pyrazol-4-yl)prop-2-enamide]
226 to 228 | 189 ± 6.4 | 1080 | – | – | – | N#C/C(=C\c1c[nH]nc1-c1ccccc1)C(=O)Nc1sc2c(c1C#N)CCC2 [Compound 34a, (2E)-2-Cyano-N-{3-cyano-4H,5H,6H-cyclopenta[b]thiophen-2-yl}-3-(3-phenyl-1H-pyrazol-4-yl)prop-2-enamide]
263 to 265 | 38.8 ± 1 | 284 ± 6.6 | – | – | – | N#C/C(=C\c1c[nH]nc1-c1ccccc1)C(=O)Nc1sc2c(c1C#N)CCCC2 [Compound 34b, (2E)-2-Cyano-N-(3-cyano-4,5,6,7-tetrahydro-1-benzothiophen-2-yl)-3-(3-phenyl-1H-pyrazol-4-yl)prop-2-enamide]
– | 5.1 ± 0.2 | 31.1 ± 1.1 | – | – | – | N#C/C(=C\c1cccc2ccccc12)C(=O)Nc1sc2c(c1C#N)CCC2 [Compound 35a, (2E)-2-Cyano-N-{3-cyano-4H,5H,6H-cyclopenta[b]thiophen-2-yl}-3-(naphthalen-1-yl)prop-2-enamide]
– | 5.3 ± 0.2 | 18.6 ± 0.9 | – | – | – | N#C/C(=C\c1cccc2ccccc12)C(=O)Nc1sc2c(c1C#N)CCCC2 [Compound 35b, (2E)-2-Cyano-N-(3-cyano-4,5,6,7-tetrahydro-1-benzothiophen-2-yl)-3-(naphthalen-1-yl)prop-2-enamide]
– | 5.2 ± 0.2 | 34.9 ± 1.6 | – | – | – | N#C/C(=C\c1ccc2ccccc2c1)C(=O)Nc1sc2c(c1C#N)CCC2 [Compound 36a, (2E)-2-Cyano-N-{3-cyano-4H,5H,6H-cyclopenta[b]thiophen-2-yl}-3-(naphthalen-2-yl)prop-2-enamide]
286 to 288 | 23.5 ± 0.9 | 137 ± 2.6 | – | – | – | N#C/C(=C\c1cccc2c1OCO2)C(=O)Nc1sc2c(c1C#N)CCC2 [Compound 37a, (2E)-3-(2H-1,3-Benzodioxol-4-yl)-2-cyano-N-{3-cyano-4H,5H,6H-cyclopenta[b]thiophen-2-yl}prop-2-enamide]
226 to 228 | 97.8 ± 2.6 | 174 | – | – | – | N#C/C(=C\c1cccc2c1OCO2)C(=O)Nc1sc2c(c1C#N)CCCC2 [Compound 37b, (2E)-3-(2H-1,3-Benzodioxol-4-yl)-2-cyano-N-(3-cyano-4,5,6,7-tetrahydro-1-benzothiophen-2-yl)prop-2-enamide]
219 to 221 | 25.4 ± 1 | 282 | – | – | – | N#C/C(=C\c1ccc2c(c1)OCO2)C(=O)Nc1sc2c(c1C#N)CCC2 [Compound 38a, (2E)-3-(2H-1,3-Benzodioxol-5-yl)-2-cyano-N-{3-cyano-4H,5H,6H-cyclopenta[b]thiophen-2-yl}prop-2-enamide]
204 to 206 | 40.3 ± 1.7 | 339 | – | – | – | N#C/C(=C\c1ccc2c(c1)OCO2)C(=O)Nc1sc2c(c1C#N)CCCC2 [Compound 38b, (2E)-3-(2H-1,3-Benzodioxol-5-yl)-2-cyano-N-(3-cyano-4,5,6,7-tetrahydro-1-benzothiophen-2-yl)prop-2-enamide]
284 to 286 | 2.5 ± 0.1 | 9.5 ± 0.3 | – | – | – | N#C/C(=C\c1c[nH]c2ccccc12)C(=O)Nc1sc2c(c1C#N)CCC2 [Compound 39a, (2E)-2-Cyano-N-{3-cyano-4H,5H,6H-cyclopenta[b]thiophen-2-yl}-3-(1H-indol-3-yl)prop-2-enamide]
